# Measurements taken from patent US20220017512A1 (SHANGHAI ENNOVABIO PHARMACEUTICALS CO., LTD., priority 2018, published 2022).
# What was measured:
# Type in all cases: biochemical
# [1] = biological target: T1, Recombinant human TRKA (Homo sapiens, UniProt P04629); experiment: In vitro activity test on TRKA kinase (HTRF KinEASE TK); details: 14.68 μM ATP, 40 min
# T1 construct: purchased Carna Biosciences
# Method: (§1) Biological Test Example 1 In Vitro Activity Test on TRKA, TRKB, TRKC Kinase
# (§2) Recombinant human TRKA, TRKB, TRKC proteins were purchased from Carna Biosciences. HTRF KinEASE TK kit was purchased from Cisbio Bioassays. Synergy Neo 2 of Biotek was used to read the plate.
# (§3) The tested compound was subjected to 3-fold serial dilution to reach a final concentration of 1 μM to 0.05 nM (10 concentrations), duplicates for each concentration; and the DMSO concentration in the detection reaction was 1%.
# 0.2 ng/μL TRKA protein kinase, 1 μM TK Substrate-biotin polypeptide substrate, 14.68 μM ATP, 1× enzymatic buffer, 5 mM MgCl2, and 1 mM DTT. The detection plate was White Proxiplate384-Plus plate (PerkinElmer), and incubated at room temperature for 40 min, and the assay volume was 10 μL.
# (§4) 10 μL of detection reagent was added to the plate (containing 0.125 μM SA-XL665 and 5 μL 1×TK-Antibody) and incubated overnight at room temperature, and Synergy Neo 2 was used to read the plate.
# (§5) The 665/620 Ratio was converted according to the following formula into inhibition rate (%)=(1−Ratiotest/Ratiomax)×100%. Ratiomax was a positive control without tested compound, and Ratiotest was the value of each concentration of different compounds. IC50 (nM) data was obtained by 4 parameter curve fitting (see Table 1).
# [2] = biological target: T2, Recombinant human TRKB (Homo sapiens, UniProt Q16620); experiment: In vitro activity test on TRKB kinase (HTRF KinEASE TK); details: 4.77 μM ATP, 50 min
# T2 construct: purchased Carna Biosciences
# Method: as §1, §2, §3
# 0.037 ng/μL TRKB protein kinase, 1 μM TK Substrate-biotin polypeptide substrate, 4.77 μM ATP, 1× enzymatic buffer, 5 mM MgCl2, and 1 mM DTT. The detection plate was White Proxiplate 384-Plus plate (PerkinElmer), and incubated at room temperature for 50 min, and the assay volume was 10 μL.
# as §4, §5
# [3] = biological target: T3, Recombinant human TRKC (Homo sapiens, UniProt Q16288); experiment: In vitro activity test on TRKC kinase (HTRF KinEASE TK); details: 25.64 μM ATP, 40 min
# T3 construct: purchased Carna Biosciences
# Method: as §1, §2, §3
# 0.037 ng/μL TRKC protein kinase, 1 μM TK Substrate-biotin polypeptide substrate, 25.64 μM ATP, 1× enzymatic buffer, 5 mM MgCl2, and 1 mM DTT. The detection plate was White Proxiplate 384-Plus plate (PerkinElmer), and incubated at room temperature for 40 min, and the assay volume was 10 μL.
# as §4, §5
# [4] = biological target: T4, recombinant human TRKA (G595R) (Homo sapiens, UniProt P04629, G595R); experiment: In vitro activity test on mutant TRKA (G595R) (HTRF KinEASE TK); details: 4.5 μM ATP, 30 min
# T4 construct: purchased SignalChem
# Method: Biological Test Example 2 In Vitro Activity Test on Mutant TRKA (G595R), TRKA (G667C) and TRKC (G623R)
# The recombinant human TRKA (G595R), TRKA (G667C) and TRKC (G623R) proteins were purchased from SignalChem. HTRF kinEASE TK kit was purchased from CisbioBioassays. Synergy Neo 2 of Biotek was used to read the plate.
# The tested compound was subjected to 4-fold serial dilution to reach a final concentration of 1 μM to 0.004 nM (10 concentrates), duplicates for each concentration; and 1% DMSO was present in the detection reaction.
# 0.12 ng/μL TRKA (G595R) kinase, 1 μM TK Substrate-biotin polypeptide substrate, 4.5 μM ATP, 1× enzymatic buffer, 5 mM MgCl2, and 1 mm DTT. The detection plate was White Proxiplate384-Plus plate (PerkinElmer), and incubated at room temperature for 30 min, and the assay volume was 10 μL.
# as §4
# The value of 665/620 Ratio minus the value of negative control wells without enzyme, then the obtained value was converted according to the following formula into inhibition rate (%)=(1−Ratiotest/Ratiomax)×100%. Ratiomax was a positive control without tested compound, and Ratiotest was the value of each concentration of different compounds. IC50 (nM) data was obtained by 4 parameter curve fitting (see Table 1).
# T4 sequence (P04629 33-796 G595R): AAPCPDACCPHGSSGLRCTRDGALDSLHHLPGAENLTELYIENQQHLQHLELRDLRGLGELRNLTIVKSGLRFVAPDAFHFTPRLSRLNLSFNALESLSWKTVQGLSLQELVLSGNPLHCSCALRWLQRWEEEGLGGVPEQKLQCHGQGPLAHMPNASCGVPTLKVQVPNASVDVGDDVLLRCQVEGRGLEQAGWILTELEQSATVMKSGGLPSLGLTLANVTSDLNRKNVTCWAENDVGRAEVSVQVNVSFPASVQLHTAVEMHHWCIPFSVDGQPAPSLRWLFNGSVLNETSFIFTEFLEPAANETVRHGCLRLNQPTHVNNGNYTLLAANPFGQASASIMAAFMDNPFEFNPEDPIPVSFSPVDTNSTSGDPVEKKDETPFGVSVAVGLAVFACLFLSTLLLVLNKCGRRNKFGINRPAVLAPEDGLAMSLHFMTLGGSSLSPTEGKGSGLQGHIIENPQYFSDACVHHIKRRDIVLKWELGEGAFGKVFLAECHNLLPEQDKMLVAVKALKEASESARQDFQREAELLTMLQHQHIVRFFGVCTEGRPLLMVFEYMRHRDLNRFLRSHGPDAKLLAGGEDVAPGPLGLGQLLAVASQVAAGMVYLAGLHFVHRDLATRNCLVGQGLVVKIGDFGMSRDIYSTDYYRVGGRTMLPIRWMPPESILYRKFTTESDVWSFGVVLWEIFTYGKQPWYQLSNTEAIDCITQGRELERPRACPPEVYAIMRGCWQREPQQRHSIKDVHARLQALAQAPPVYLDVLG
# T3 sequence (Q16288 32-839): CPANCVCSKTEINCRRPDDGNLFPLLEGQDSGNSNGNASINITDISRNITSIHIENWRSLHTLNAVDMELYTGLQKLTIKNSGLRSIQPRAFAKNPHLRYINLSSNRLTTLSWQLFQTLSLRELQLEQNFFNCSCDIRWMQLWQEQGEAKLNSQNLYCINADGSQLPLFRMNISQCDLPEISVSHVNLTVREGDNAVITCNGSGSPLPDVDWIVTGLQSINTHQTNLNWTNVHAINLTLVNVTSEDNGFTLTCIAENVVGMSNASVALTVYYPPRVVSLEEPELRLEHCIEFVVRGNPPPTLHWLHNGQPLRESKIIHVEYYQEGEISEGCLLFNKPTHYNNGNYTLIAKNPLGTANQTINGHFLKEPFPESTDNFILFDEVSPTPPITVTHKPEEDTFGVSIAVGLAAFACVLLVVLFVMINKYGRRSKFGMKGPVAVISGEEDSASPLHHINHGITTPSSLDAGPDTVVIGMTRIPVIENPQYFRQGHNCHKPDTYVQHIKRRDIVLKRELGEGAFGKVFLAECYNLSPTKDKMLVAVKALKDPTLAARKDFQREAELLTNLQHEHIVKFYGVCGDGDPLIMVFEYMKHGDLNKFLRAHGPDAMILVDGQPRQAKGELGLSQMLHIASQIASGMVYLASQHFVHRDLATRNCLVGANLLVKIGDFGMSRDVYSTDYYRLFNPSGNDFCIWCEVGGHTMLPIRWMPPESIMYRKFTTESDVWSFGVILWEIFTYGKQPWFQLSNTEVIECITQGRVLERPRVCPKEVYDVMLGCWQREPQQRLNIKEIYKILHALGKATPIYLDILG
# T2 sequence (Q16620 32-822): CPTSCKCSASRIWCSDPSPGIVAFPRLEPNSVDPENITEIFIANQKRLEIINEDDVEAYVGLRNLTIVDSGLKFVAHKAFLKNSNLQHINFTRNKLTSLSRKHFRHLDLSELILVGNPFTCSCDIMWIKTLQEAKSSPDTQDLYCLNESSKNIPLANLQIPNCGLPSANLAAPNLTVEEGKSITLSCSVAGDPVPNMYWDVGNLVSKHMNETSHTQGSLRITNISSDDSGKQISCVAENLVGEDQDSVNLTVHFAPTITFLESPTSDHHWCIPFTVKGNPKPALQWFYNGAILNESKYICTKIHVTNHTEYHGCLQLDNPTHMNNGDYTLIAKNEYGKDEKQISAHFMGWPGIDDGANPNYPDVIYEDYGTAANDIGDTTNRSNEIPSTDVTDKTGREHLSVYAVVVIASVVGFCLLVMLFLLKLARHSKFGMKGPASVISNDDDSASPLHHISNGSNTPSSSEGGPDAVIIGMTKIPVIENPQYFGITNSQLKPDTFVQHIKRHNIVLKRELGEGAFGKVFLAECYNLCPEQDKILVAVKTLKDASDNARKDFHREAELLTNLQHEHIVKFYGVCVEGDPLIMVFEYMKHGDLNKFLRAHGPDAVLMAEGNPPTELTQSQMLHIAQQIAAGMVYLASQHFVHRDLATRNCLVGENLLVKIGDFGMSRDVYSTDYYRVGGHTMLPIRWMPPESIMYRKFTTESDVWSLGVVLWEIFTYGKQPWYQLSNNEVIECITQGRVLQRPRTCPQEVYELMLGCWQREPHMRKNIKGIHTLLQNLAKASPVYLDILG
# T1 sequence (P04629 33-796): as the sequence (P04629 33-796 G595R) above, with R563G counted along it
IC50 [1] [nM],IC50 [2] [nM],IC50 [3] [nM],IC50 [4] [nM],Compound
< 1,< 10,< 10,< 1,"Fc1ccc(Cl)c([C@H]2CCCN2c2ccc3ncc(F)c(-c4cnn(C5CCNCC5)c4)c3n2)c1 [Example 89, (R)-2-(2-(2-Chloro-5-fluorophenyl)pyrrolidin-1-yl)-7-fluoro-8-(1-(piperidin-4-yl)-1H-pyrazol-4-yl)-1,5-naphthyridine]"
< 1,< 1,< 1,< 1,"O=C(O)[C@@H]1CCN(c2ncc(-c3ncnc4ccc(N5C[C@@H](F)C[C@@H]5c5cc(F)ccc5F)nc34)cn2)C1 [Example 88, (R)-1-(5-(6-((2R,4S)-2-(2,5-difluorophenyl)-4-fluoropyrrolidin-1-yl)pyrido[3,2-d]primidin-4-yl)pyrimidin-2-yl)pyrrolidin-3-carboxylic acid]"
< 1,< 1,< 1,< 10,"Fc1ccc(F)c([C@H]2C[C@H](F)CN2c2ccc3ncnc(-c4cnc(C5CCNCC5)nc4)c3n2)c1 [Example 91, 6-((2R,4S)-2-(2,5-Difluorophenyl)-4-fluoropyrrolidin-1-yl)-4-(2-(piperidin-4-yl)pyrimidin-5-yl)pyrido[3,2-d]pyrimidine]"
< 1,< 10,< 10,< 10,"OC1CCN(c2nc(-c3ncnc4ccc(N5C[C@@H](F)C[C@@H]5c5cc(F)ccc5F)nc34)no2)CC1 [Example 80, 1-(3-(6-((2R,4S)-2-(2,5-difluorophenyl)-4-fluoropyrrolidin-1-yl)pyrido[3,2-d]pyrimidin-4-yl)-1,2,4-oxadiazol-5-yl)piperidin-4-ol]"
< 1,< 10,< 10,< 10,"O=c1n(-c2ncnc3ccc(N4C[C@@H](F)C[C@@H]4c4cc(F)ccc4F)nc23)ccn1C1CCNCC1 [Example 96, 1-(6-((2R,4S)-2-(2,5-difluorophenyl)-4-fluoropyrrolidin-1-yl)pyrido[3,2-d]pyrimidin-4-yl)-3-(piperidin-4-yl)-1,3-dihydro-2H-imidazol-2-one]"
< 1,< 10,< 1,< 10,"Fc1ccc(F)c([C@H]2C[C@H](F)CN2c2ccc3ncnc(-c4cn(C5CCNCC5)nn4)c3n2)c1 [Example 86, 6-((2R,4S)-2-(2,5-Difluorophenyl)-4-fluoropyrrolidin-1-yl)-4-(1-(piperidin-4-yl)-1H-1,2,3-triazol-4-yl)pyrido[3,2-d]pyrimidine]"
< 1,< 10,< 10,< 10,"Fc1ccc(F)c([C@H]2C[C@H](F)CN2c2ncc3ncnc(-c4cnn(C5CCNCC5)c4)c3n2)c1 [Example 76, 2-((2R,4S)-2-(2,5-difluorophenyl)-4-fluoropyrrolidin-1-yl)-8-(1-(piperidin-4-yl)-1H-pyrazol-4-yl)pyrimido[5,4-d]pyrimidine]"
< 1,< 10,< 10,< 10,"Fc1ccc(F)c([C@H]2C[C@H](F)CN2c2ccc3ncc(F)c(-c4cn(C5CCNCC5)nn4)c3n2)c1 [Example 83, 2-((2R,4S)-2-(2,5-difluorophenyl)-4-fluoropyrrolidin-1-yl)-7-fluoro-8-(1-(piperidin-4-yl)-1H-1,2,3-triazol-4-yl)-1,5-naphthyridine]"
